Laboratory results: patent US5045544A, “N'-alkyl-spiro-isoquinoline-pyrrolidine tetrones and analogs thereof useful as aldose reductase inhibitors” (American Home Products Corporation, priority 1990, dated 1991)
Values belong to the compound of their own block, whether it stands above or below them.

How the values were obtained:
[1] = molecular target: T1, aldose reductase (Bos taurus, UniProt P16116); experiment: in vitro aldose reductase inhibition (modified Hayman and Kinoshita procedure, enzyme from bovine lens); assay type: biochemical; settings: for inhibition at 1 µM: 10^-6 M; for inhibition at 10 µM: 10^-5 M
T1 construct: preparation of the enzyme from bovine lens; from tissue; host or cells: bovine lens
Description: (§1) (c) The polyol determination was performed by a modification of the procedure of M. Kraml and L. Cosyns, Clin. Biochem., 2, 373 (1969). Only two minor reagent changes were made: (a) the rinsing mixture was an aqueous 5% (w/v) trichloroacetic acid solution and (b) the stock solution was prepared by dissolving 25 mg of dulcitol in 100 ml of an aqueous trichloroacetic acid solution. [N.B.: For each experiment the average value found in the tissue from rats fed the glucose diet was substracted from the individual values found in the corresponding tissue in galactose-fed rats to obtain the amount of polyol accumulated.] The aldose reductase inhibiting effects of the compounds of formula (I) were also tested by employing an in vitro testing procedure similar to that described by S. Hayman and J. H. Kinoshita, J. Biol. Chem., 240, 877 (1965). In the present case the procedure of Hayman and Kinoshita was modified in that the final chromatography step was omitted in the preparation of the enzyme from bovine lens.

[2] = test system: diaphragm; experiment: dulcitol (galactitol) accumulation in the diaphragm of galactose-fed (galactosemic) rats; assay type: in vivo, rat (Sprague-Dawley); settings: 4 days
Description: (§2) The aldose reductase inhibiting property of the compounds of this invention and the utilization of the compounds in preventing, diminishing and alleviating diabetic complications are demonstrable in experiments using galactosemic rats, see Dvornik et al., Science, 182, 1146 (1973). Such experiments are exemplified hereinbelow after the listing of the following general comments pertaining to these experiments:
(§3) (a) Four or more groups of six male rats, 50-70 g, Sprague-Dawley strain, were used. The first group, the control group, was fed a mixture of laboratory chow (rodent Laboratory Chow, Purina) and glucose at 20% (w/w %) concentration. An untreated galactosemic group was fed a similar diet in which galactose was substituted for glucose. The third group was fed a diet prepared by mixing a given amount of the test compound with the galactose containing diet. The concentration of galactose in the diet of the treated groups was the same as that for the untreated galactosemic group.
(§4) (b) After four days, the animals were killed by euthanization. Both the lens and sciatic nerve were removed, weighed and stored frozen for polyol determination.
as §1
(§5) The figures under L, N, and D represent the percentage decrease of dulcitol accumulation in the tissues of the lens, sciatic nerve, and diaphragm, respectively, for treated rats as compared to untreated rats.

[3] = test system: sciatic nerve; experiment: dulcitol (galactitol) accumulation in the sciatic nerve of galactose-fed (galactosemic) rats; assay type: in vivo, rat (Sprague-Dawley); settings: 4 days
Description: as §2, §3, §4, §1, §5

[4] = test system: lens; experiment: dulcitol (galactitol) accumulation in the lens of galactose-fed (galactosemic) rats; assay type: in vivo, rat (Sprague-Dawley); settings: 10.2 mg/kg in diet, 4 days
Description: as §2, §3, §4
(c) The polyol determination was performed by a modification of the procedure of M. Kraml and L. Cosyns, Clin. Biochem., 2, 373 (1969). […]

inhibition at 1 µM [1]: 0%
SMILES: CCN1C(=O)CC2(C1=O)C(=O)N(Cc1nc3cc(C(F)(F)F)ccc3s1)C(=O)c1ccc(F)cc12 (centres unmarked) [R1=F, R4=C2 H5, R5=CF3, 1'-ethyl-6-fluoro-2-[[5-(trifluoromethyl)-2-benzothiazolyl]methyl]spiro[isoquinoline-4(1H),3'-pyrrolidine]-1,2',3,5'(2H)-tetrone]
% Lowering Galactitol Accumulation In Vivo, (%) D ([2]; 10 mg/kg/day in diet): 59%

inhibition at 10 µM [1]: 0%
SMILES: CCN1C(=O)CC2(C1=O)C(=O)N(Cc1ccc(Br)cc1F)C(=O)c1ccc(F)cc12 (centres unmarked) [R1=F, R4=CH2 CH3, 2-[(4-bromo-2-fluorophenyl)methyl]-1'-ethyl-6-fluorospiro[isoquinoline-4(1H),3'-pyrrolidine]-1,2',3,5'(2H)-tetrone]
% lowering dulcitol accumulation in vivo, % D ([2]; 0.5 mg/kg in diet): 65%
% lowering dulcitol accumulation in vivo, % D ([2]; 1.0 mg/kg in diet): 84%
% lowering dulcitol accumulation in vivo, % N ([3]; 0.5 mg/kg in diet): 19%
% lowering dulcitol accumulation in vivo, % N ([3]; 1.0 mg/kg in diet): 74%

inhibition at 10 µM [1]: 0%
SMILES: CCN1C(=O)CC2(C1=O)C(=O)N(Cc1ccc(Br)cc1F)C(=O)c1ccccc12 (centres unmarked) [R1=H, R4=CH2 CH3, 2-[(4-bromo-2-fluorophenyl)methyl]-1'-ethylspiro[isoquinoline-4(1H), 3'-pyrrolidine]-1,2',3,5'(2H)-tetrone]
% lowering dulcitol accumulation in vivo, % D ([2]; 0.5 mg/kg in diet): 56%
% lowering dulcitol accumulation in vivo, % D ([2]; 0.9 mg/kg in diet): 73%
% lowering dulcitol accumulation in vivo, % N ([3]; 0.5 mg/kg in diet): 37%
% lowering dulcitol accumulation in vivo, % N ([3]; 0.9 mg/kg in diet): 65%

inhibition at 10 µM [1]: 0%
SMILES: CN1C(=O)CC2(C1=O)C(=O)N(Cc1ccc(Br)cc1F)C(=O)c1ccccc12 (centres unmarked) [R1=H, R4=CH3, 2-[(4-bromo-2-fluorophenyl)methyl]-1'-methylspiro[isoquinoline-4(1H), 3'-pyrrolidine]-1,2',3,5'(2H)-tetrone]
% lowering dulcitol accumulation in vivo, % D ([2]; 0.5 mg/kg in diet): 61%
% lowering dulcitol accumulation in vivo, % D ([2]; 1.1 mg/kg in diet): 75%
% lowering dulcitol accumulation in vivo, % D ([2]; 10.2 mg/kg in diet): 94%
% lowering dulcitol accumulation in vivo, % L [4]: 31%
% lowering dulcitol accumulation in vivo, % N ([3]; 0.5 mg/kg in diet): 50%
% lowering dulcitol accumulation in vivo, % N ([3]; 1.1 mg/kg in diet): 76%
% lowering dulcitol accumulation in vivo, % N ([3]; 10.2 mg/kg in diet): 95%

inhibition at 1 µM [1]: 0%
SMILES: CN1C(=O)CC2(C1=O)C(=O)N(Cc1nc3cc(C(F)(F)F)ccc3s1)C(=O)c1ccccc12 (centres unmarked) [R1=H, R4=CH3, R5=CF3, 2-[[5-(trifluoromethyl)-2-benzothiazolyl]methyl]-1'-methylspiro[isoquinoline-4(1H),3'-pyrrolidine]-1,2',3,5'(2H)-tetrone]
% Lowering Galactitol Accumulation In Vivo, (%) D ([2]; 9.5 mg/kg/day in diet): 100%
% Lowering Galactitol Accumulation In Vivo, (%) N ([3]; 9.5 mg/kg/day in diet): 82%
